Source: ChEMBL document CHEMBL4229332, “Novel multi-target azinesulfonamides of cyclic amine derivatives as potential antipsychotics with pro-social and pro-cognitive effects” (Eur J Med Chem, 2018)

Experiments:
[1] = molecular target: T1, 5-hydroxytryptamine receptor 2A (Homo sapiens, UniProt P28223); test: Antagonist activity at human 5-HT2AR expressed in HEK293 cells assessed as inhibition of serotonin-induced calcium flux at 10^-6 M after 30 mins by HTRF method; format: functional, cell-based
T1 sequence (P28223 whole entry): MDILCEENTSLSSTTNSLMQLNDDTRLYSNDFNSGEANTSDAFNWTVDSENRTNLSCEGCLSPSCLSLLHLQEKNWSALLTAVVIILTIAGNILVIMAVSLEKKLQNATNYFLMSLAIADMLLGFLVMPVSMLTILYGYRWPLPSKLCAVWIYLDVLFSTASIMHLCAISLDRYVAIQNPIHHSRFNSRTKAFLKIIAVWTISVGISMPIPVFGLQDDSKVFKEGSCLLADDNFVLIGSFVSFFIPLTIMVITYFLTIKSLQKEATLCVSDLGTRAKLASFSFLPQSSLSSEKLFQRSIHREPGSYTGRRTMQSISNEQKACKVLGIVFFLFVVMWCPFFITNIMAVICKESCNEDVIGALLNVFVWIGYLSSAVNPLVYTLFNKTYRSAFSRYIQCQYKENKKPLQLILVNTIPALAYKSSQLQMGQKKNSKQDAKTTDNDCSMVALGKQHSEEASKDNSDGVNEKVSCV

[2] = molecular target: T2, 5-hydroxytryptamine receptor 1A (Homo sapiens) (UniProt P08908); test: Antagonist activity at human 5-HT1AR expressed in mouse BA/F3 cells assessed as inhibition of serotonin-induced calcium flux at 10^-6 M by fluorimetric method; format: functional, cell-based
T2 sequence (whole entry): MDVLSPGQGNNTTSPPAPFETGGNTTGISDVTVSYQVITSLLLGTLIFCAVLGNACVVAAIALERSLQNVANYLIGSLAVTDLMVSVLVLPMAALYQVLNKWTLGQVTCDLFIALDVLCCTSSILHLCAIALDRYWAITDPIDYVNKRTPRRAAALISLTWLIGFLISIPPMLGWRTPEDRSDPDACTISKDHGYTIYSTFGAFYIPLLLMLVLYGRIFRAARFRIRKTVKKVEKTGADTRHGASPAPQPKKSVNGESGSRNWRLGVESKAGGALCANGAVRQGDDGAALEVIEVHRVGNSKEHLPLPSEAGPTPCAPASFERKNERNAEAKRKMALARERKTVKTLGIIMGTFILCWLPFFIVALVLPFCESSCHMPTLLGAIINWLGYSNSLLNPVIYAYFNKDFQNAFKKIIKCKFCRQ

[3] = molecular target: T3, 5-hydroxytryptamine receptor 6 (Homo sapiens, UniProt P50406); test: Antagonist activity at human 5-HT6R expressed in CHO-K1 cells assessed as inhibition of serotonin-induced cAMP accumulation at 10^-6 M after 30 mins by chemiluminescence-based assay; format: functional, cell-based
T3 sequence (P50406 whole entry): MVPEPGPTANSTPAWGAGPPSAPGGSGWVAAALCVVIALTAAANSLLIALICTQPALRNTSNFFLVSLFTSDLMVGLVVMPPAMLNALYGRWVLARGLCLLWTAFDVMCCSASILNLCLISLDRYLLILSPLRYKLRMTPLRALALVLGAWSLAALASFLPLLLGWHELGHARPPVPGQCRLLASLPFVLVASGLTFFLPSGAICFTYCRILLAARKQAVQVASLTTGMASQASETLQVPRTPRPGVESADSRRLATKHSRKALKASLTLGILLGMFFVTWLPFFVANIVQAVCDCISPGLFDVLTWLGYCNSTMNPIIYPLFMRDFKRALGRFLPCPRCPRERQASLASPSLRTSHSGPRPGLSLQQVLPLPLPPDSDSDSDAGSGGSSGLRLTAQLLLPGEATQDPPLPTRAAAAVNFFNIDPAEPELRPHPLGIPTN

[4] = molecular target: 5-hydroxytryptamine receptor 7 (Homo sapiens, UniProt P34969); test: Antagonist activity at human 5-HT7R expressed in CHO-K1 cells assessed as inhibition of serotonin-induced cAMP accumulation after 30 mins by chemiluminescence-based assay; format: functional, cell-based
Sequence of 5-hydroxytryptamine receptor 7 (P34969 whole entry): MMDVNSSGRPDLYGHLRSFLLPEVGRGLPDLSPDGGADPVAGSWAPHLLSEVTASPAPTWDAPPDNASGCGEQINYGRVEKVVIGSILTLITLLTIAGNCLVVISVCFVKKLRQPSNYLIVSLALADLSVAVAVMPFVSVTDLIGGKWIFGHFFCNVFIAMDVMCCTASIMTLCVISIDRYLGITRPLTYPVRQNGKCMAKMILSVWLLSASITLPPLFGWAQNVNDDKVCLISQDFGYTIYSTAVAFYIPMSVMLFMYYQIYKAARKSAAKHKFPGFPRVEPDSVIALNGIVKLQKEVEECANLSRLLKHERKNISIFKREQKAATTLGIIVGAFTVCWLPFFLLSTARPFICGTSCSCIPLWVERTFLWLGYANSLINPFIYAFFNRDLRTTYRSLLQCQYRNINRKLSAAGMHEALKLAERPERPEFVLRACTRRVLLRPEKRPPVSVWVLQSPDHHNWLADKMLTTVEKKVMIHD

[5] = molecular target: D(3) dopamine receptor (Homo sapiens) (UniProt P35462); test: Antagonist activity at human D3R expressed in CHO-K1 cells assessed as inhibition of dopamine induced cAMP accumulation at 10^-6 M after 30 mins by HTRF method; format: functional, cell-based
Sequence of D(3) dopamine receptor (Homo sapiens) (P35462 whole entry): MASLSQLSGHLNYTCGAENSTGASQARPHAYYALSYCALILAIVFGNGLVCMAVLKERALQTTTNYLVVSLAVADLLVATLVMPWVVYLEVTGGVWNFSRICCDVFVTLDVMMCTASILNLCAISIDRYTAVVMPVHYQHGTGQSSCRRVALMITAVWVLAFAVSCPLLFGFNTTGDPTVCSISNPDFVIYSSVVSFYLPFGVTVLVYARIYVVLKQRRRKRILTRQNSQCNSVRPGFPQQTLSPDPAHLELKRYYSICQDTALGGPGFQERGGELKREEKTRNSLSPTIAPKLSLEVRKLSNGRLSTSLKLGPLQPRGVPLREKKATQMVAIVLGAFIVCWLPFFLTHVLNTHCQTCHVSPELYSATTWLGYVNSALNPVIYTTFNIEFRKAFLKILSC

[6] = Drug level in Wistar rat plasma at 3 mg/kg, ip measured after 15 mins by LC-MS/MS analysis; format: ADME, organism-based
[7] = Drug level in Wistar rat brain at 3 mg/kg, ip measured after 60 mins by LC-MS/MS analysis; format: ADME, organism-based; conditions: read-out: Drug uptake
Cavia porcellus [8] = test: Cardiotoxicity in guinea pig assessed as effect on QT interval time at 5 mg/kg, ip measured after 10 mins by ECG analysis (reference value: 127.6 to 131.2 milliseconds); format: toxicity, organism-based; conditions: in vivo
Cavia porcellus [9] = test: Cardiotoxicity in guinea pig assessed as effect on QT interval time at 5 mg/kg, ip measured after 50 mins by ECG analysis (reference value: 127.6 to 131.2 milliseconds); format: toxicity, organism-based; conditions: in vivo
Cavia porcellus [10] = test: Cardiotoxicity in guinea pig assessed as effect on PR interval time at 5 mg/kg, ip measured after 80 mins by ECG analysis (reference value: 58.8 to 63.8 milliseconds); format: toxicity, organism-based; conditions: in vivo
Cavia porcellus [11] = test: Cardiotoxicity in guinea pig assessed as effect on RR interval time at 5 mg/kg, ip measured after 20 mins by ECG analysis (reference value: 208.4 to 238.4 milliseconds); format: toxicity, organism-based; conditions: in vivo
Cavia porcellus [12] = test: Cardiotoxicity in guinea pig assessed as effect on RR interval time at 5 mg/kg, ip measured after 50 mins by ECG analysis (reference value: 208.4 to 238.4 milliseconds); format: toxicity, organism-based; conditions: in vivo
Cavia porcellus [13] = test: Cardiotoxicity in guinea pig assessed as effect on RR interval time at 5 mg/kg, ip measured after 70 mins by ECG analysis (reference value: 208.4 to 238.4 milliseconds); format: toxicity, organism-based; conditions: in vivo
Cavia porcellus [14] = test: Cardiotoxicity in guinea pig assessed as effect on QTc interval time at 5 mg/kg, ip measured after 50 mins by ECG analysis (reference value: […] to […] milliseconds); format: toxicity, organism-based; conditions: in vivo
Rattus norvegicus = test: Cardiotoxicity in Wistar rat assessed as effect on blood pressure at 2 to 5 mg/kg, iv; format: toxicity, organism-based; conditions: in vivo
[15] = molecular target: T3, 5-hydroxytryptamine receptor 6; test: biochemical
Description: Displacement of [3H]-LSD from human 5-HT6R expressed in HEK293 cell membranes after 1 hr at 37 degC by microbeta counting method

[16] = molecular target: T1, 5-hydroxytryptamine receptor 2A; test: Antagonist activity at human 5-HT2AR expressed in HEK293 cells assessed as inhibition of serotonin-induced IP1 accumulation by chemiluminescence-based assay; format: functional, cell-based
[17] = molecular target: T2, 5-hydroxytryptamine receptor 1A (Homo sapiens); test: Antagonist activity at human 5-HT1AR expressed in CHO-K1 cells assessed as inhibition of serotonin-induced cAMP accumulation by chemiluminescence-based assay; format: functional, cell-based
[18] = molecular target: T2, 5-hydroxytryptamine receptor 1A (Homo sapiens); test: Antagonist activity at human 5-HT1AR expressed in CHO-K1 cells assessed as inhibition of serotonin-induced cAMP accumulation at 10^-6 M by chemiluminescence-based assay; format: functional, cell-based
[19] = molecular target: T3, 5-hydroxytryptamine receptor 6; test: Antagonist activity at human 5-HT6R expressed in CHO-K1 cells assessed as inhibition of serotonin-induced cAMP accumulation at 10^-6 M by chemiluminescence-based assay; format: functional, cell-based
[20] = molecular target: D(3) dopamine receptor (Homo sapiens) (UniProt P35462); test: Antagonist activity at human D3R expressed in CHO-K1 cells assessed as inhibition of […] cAMP accumulation at 10^-6 M by chemiluminescence-based assay; format: functional, cell-based
[21] = molecular target: T4, 5-hydroxytryptamine receptor 1A (Homo sapiens, UniProt P08908); test: Displacement of [3H]-WAY100635 from recombinant full-length human 5-HT1AR expressed in CHO cells after 120 mins by scintillation counting method; format: cell-based
T4 sequence (P08908 whole entry): T2 sequence (whole entry)

[22] = molecular target: Beta-2 adrenergic receptor (Homo sapiens) (UniProt P07550); test: Displacement of CGP 12177 from human adrenergic beta2 receptor expressed in CHO cells at 10^-6 M after 60 mins by scintillation counting method relative to contro; format: cell-based
Sequence of Beta-2 adrenergic receptor (Homo sapiens) (P07550 whole entry, looked up): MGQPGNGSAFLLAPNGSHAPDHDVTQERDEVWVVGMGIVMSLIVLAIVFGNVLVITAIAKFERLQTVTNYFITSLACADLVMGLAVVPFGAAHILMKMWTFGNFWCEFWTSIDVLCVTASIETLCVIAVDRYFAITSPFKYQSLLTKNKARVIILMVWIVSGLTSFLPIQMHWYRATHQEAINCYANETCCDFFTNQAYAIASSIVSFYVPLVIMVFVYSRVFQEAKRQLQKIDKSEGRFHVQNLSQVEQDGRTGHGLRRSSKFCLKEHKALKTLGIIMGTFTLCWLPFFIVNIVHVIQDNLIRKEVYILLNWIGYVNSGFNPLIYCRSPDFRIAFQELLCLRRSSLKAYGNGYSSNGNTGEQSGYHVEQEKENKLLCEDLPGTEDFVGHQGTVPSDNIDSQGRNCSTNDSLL

[23] = molecular target: Muscarinic acetylcholine receptor M1 (Homo sapiens) (UniProt P11229); test: Displacement of [3H]-pirenzepine from human muscarinic acetylcholine M1 receptor expressed in CHO cells at 10^-6 M after 60 mins by scintillation counting method relative to control; format: cell-based
Sequence of Muscarinic acetylcholine receptor M1 (Homo sapiens) (P11229 whole entry): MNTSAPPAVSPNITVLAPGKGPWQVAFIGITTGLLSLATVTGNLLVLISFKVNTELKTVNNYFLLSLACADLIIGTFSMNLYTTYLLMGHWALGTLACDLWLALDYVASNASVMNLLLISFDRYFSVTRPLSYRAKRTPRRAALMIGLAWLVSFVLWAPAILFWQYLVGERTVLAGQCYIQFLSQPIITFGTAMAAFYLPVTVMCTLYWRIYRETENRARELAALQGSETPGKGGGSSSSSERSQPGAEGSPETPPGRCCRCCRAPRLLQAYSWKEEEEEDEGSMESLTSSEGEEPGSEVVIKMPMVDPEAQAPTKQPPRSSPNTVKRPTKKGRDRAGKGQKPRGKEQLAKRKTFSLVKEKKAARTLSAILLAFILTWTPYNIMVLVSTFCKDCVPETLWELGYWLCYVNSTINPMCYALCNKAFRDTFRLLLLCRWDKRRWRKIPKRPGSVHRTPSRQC

[24] = molecular target: 5-hydroxytryptamine receptor 2B (Homo sapiens) (UniProt P41595); test: Displacement of [3H]mesulergine from human 5-HT2B receptor expressed in CHO cells at 10^-6 M after 60 mins by scintillation counting analysis relative to control; format: cell-based
Sequence of 5-hydroxytryptamine receptor 2B (Homo sapiens) (P41595 whole entry): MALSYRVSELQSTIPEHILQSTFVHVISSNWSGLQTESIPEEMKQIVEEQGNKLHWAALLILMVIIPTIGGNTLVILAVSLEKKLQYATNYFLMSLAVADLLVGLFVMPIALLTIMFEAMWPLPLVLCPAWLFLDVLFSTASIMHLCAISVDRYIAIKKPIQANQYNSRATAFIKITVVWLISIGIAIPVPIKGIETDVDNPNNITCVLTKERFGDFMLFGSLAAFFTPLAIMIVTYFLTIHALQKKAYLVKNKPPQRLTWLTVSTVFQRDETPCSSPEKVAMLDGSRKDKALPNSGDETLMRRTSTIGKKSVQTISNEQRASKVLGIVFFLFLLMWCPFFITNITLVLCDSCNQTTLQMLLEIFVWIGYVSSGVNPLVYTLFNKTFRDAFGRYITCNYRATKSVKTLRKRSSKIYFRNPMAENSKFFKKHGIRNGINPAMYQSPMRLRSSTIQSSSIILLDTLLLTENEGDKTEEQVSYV

[25] = molecular target: 5-hydroxytryptamine receptor 2C (Homo sapiens) (UniProt P28335); test: Displacement of [3H]mesulergine from human 5-HT2C receptor expressed in CHO cells at 10^-6 M after 120 mins by scintillation counting analysis relative to control; format: cell-based
Sequence of 5-hydroxytryptamine receptor 2C (Homo sapiens) (P28335 whole entry): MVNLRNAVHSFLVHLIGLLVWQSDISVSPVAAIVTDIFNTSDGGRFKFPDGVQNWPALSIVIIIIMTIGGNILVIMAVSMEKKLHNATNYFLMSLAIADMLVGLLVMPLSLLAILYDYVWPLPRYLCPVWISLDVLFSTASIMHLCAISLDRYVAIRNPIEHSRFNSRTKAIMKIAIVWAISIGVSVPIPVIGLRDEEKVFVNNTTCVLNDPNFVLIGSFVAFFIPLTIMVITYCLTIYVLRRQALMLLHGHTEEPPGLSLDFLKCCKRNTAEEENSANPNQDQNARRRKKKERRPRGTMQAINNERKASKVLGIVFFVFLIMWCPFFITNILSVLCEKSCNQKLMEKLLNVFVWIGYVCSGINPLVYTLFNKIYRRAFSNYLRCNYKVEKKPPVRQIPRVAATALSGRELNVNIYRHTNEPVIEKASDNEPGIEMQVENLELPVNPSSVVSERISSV

[26] = molecular target: T3, 5-hydroxytryptamine receptor 6; test: Displacement of [3H]LSD from human recombinant 5-HT6 receptor at 10^-6 M after 120 mins by scintillation counting analysis relative to control
[27] = molecular target: Sodium-dependent serotonin transporter (Homo sapiens, UniProt P31645); test: Displacement of [3H]-imipramine from human SERT expressed in CHO cells at 10^-6 M after 60 mins by scintillation counting method relative to control; format: cell-based
Sequence of Sodium-dependent serotonin transporter (P31645 whole entry, looked up): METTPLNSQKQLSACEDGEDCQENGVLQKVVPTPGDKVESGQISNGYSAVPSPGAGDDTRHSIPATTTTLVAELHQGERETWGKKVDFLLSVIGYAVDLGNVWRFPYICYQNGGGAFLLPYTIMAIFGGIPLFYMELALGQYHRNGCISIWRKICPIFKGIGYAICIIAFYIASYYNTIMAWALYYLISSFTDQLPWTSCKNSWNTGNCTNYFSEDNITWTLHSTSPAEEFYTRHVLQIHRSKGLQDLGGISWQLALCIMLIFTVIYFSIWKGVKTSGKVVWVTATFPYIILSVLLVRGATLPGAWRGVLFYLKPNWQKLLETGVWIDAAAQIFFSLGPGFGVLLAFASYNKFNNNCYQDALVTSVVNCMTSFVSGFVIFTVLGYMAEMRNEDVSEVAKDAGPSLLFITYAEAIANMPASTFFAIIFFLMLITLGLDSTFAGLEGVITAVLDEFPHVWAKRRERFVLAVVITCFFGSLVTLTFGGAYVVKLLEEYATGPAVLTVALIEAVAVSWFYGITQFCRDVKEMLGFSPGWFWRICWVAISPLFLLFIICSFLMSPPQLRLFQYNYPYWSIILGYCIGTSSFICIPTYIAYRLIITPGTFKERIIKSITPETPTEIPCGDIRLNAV

[28] = molecular target: 5-hydroxytryptamine receptor 2C (Homo sapiens) (UniProt P28335); test: Antagonist activity at human 5-HT2CR expressed in HEK293 cells assessed as inhibition of serotonin-induced IP1 accumulation after 30 mins by HTRF method; format: functional, cell-based

SMILES | inhibition [2] [%] | concentration at 0.25 h [6] [nM] | concentration at 1 h [7] [nM] | Time (Cavia porcellus [8]) [ms] | Time (Cavia porcellus [9]) [ms] | Time (Cavia porcellus [10]) [ms] | Time (Cavia porcellus [11]) [ms] | Time (Cavia porcellus [12]) [ms] | Time (Cavia porcellus [13]) [ms] | Time (Cavia porcellus [14]) [ms] | Activity (Rattus norvegicus) | other results
O=S(=O)(c1cncc2ccccc12)N1CCC[C@H]1CCN1CCN(c2nsc3ccccc23)CC1 | 87 | 249 | 49.4 | 121.8 | 121.6 | 61.8 | 206 | 210.6 | 211.4 | 266 | Non-Toxic | inhibition [1]: 100%; inhibition [3]: 23%; Kb [4]: 2.5 nM; inhibition [5]: 100%; Ki [15]: 313 nM
O=S(=O)(c1cncc2ccccc12)N1CCC[C@H]1CCN1CCN(c2cccc3sccc23)CC1 | 80 | 188 | 89.3 | 127.4 | 124.8 | 63.8 | 231.2 | 220 | 214.8 | 265 | Non-Toxic | Kb [16]: 2.3 nM; Kb [17]: 35.6 nM; inhibition [18]: 32.5%; inhibition [19]: 23%; inhibition [20]: 73%; Ki [21]: 18 nM; inhibition [22]: 25%; inhibition [23]: 6%; inhibition [24]: 100%; inhibition [25]: 80%; inhibition [26]: 23%; inhibition [27]: 84%; Kb [28]: 24 nM
